Source: patent publication US20100256098A1, “COMPOUNDS FOR INHIBITING WIP1, PRODRUGS AND COMPOSITIONS THEREOF, AND RELATED METHODS” (The United States of America, as represented by the …, priority 2007, published 2010)
Where a chain is given by its changes, count along the chain named. Read-outs that look alike come from different tables or passages of the source.

Experiments:
[1] = target: T1, human Wip1 protein (rWip1, catalytic domain, residues 1-420) (Homo sapiens, UniProt O15297); assay: Wip1 phosphatase assay (malachite green/molybdate-based)
T1 sequence (O15297 1-420): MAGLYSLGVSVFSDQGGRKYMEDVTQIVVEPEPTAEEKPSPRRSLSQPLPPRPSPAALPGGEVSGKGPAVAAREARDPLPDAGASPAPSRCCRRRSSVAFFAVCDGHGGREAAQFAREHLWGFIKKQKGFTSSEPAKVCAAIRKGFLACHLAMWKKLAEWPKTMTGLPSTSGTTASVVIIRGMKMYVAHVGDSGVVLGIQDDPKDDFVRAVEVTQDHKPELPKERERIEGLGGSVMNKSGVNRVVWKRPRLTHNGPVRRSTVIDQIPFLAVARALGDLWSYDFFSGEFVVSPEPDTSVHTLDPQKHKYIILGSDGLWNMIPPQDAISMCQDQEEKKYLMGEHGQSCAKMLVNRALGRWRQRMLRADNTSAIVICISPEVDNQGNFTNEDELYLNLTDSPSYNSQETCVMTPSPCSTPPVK
Procedure: (§1) An N-terminal histidine-tagged, catalytic domain of the human Wip1 protein (amino acid residues 1-420), rWip1, and K238D mutant of Wip1 were expressed in Escherichia coli BL21 (DE3) and purified as previously reported in Yamaguchi et al., supra.
(§2) Phosphatase activity was measured by a malachite green/molybdate-based assay (see, e.g., Yamaguchi et al., Biochemistry, 44:5285-5294 (2005), Harder et al, Biochem J., 298: 395-401 (1994), and Donella-Deana et al., Methods Enzymol., 366: 3-17 (2003)). […] The inhibitors were pre-equilibrated at 30° C. for 6 min. The inhibition percentages were estimated by the following equation.
(§3) where A and A100 denote absorbance intensities at 650 nm with and without the inhibitor, respectively. A0 denotes absorbance of the sample without phosphatase. The IC50 values were estimated by a sigmoidal dose-response equation. The apparent inhibitory constant (Ki) values were estimated using the following equation (see, e.g., Cheng et al., Biochem. Pharmacol., 22: 3099-3108 (1973)):

[2] = system: human Wip1 protein (rWip1, catalytic domain, residues 1-420); assay: as above; conditions: versus K238D mutant and PP2Cα
Procedure: as §1, §2, §3

PP2Cα = target: T2, PP2Cα (Homo sapiens, UniProt P35813); assay: Phosphatase assay with PP2Cα; conditions: for Ki: read-out: Ki (μM) PP2Cα, Table 2, NI = no inhibition observed
T2 sequence (P35813 1-382): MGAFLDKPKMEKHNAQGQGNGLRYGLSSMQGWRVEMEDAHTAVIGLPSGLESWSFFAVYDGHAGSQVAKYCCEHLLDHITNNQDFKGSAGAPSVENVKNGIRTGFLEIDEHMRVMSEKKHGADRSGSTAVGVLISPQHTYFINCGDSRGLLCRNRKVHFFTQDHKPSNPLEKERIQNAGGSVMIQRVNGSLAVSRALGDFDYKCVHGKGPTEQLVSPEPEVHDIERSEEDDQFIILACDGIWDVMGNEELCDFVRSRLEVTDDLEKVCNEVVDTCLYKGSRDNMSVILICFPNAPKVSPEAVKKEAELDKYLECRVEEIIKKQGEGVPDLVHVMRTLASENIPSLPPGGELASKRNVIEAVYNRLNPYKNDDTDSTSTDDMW
Procedure: (§4) The inhibitors were pre-equilibrated at 30° C. for 6 min. The inhibition percentages were estimated by the following equation.
as §3
(§5) wherein [S] is the concentration of the substrate peptide and Km is the Michaelis constant.
(§6) The selectivity of the compounds was determined. Certain compounds were tested to determine their selectivity in inhibiting Wip1, PP2Cα, and a K238D mutant of Wip1 according to the methods described above.

Wip1(K238D) = target: T3, Wip1(K238D) (Homo sapiens, UniProt O15297, K238D); assay: Phosphatase assay with the K238D mutant of Wip1; conditions: for Ki: read-out: Ki (μM) Wip1(K238D), Table 2, K238D mutant of Wip1, NI = no inhibition observed
T3 sequence (O15297 1-420 K238D): T1 sequence (O15297 1-420) with K238D
Procedure: as §4, §3, §5, §6

Wip1 in MCF7 cells = assay: Western blot of phospho-p38 MAPK and p38 MAPK in MCF7 cells treated with compound; type: cell-based, human; conditions: DMSO negative and UV (25J/m2) positive controls
Procedure: The selectivity of three compounds in inhibiting Wip1 was tested on human breast cancer cell line MCF7 cells, the latter strongly expressing Wip1. These cells were treated with each compound, and cell lysates were collected after the indicated time point. 20 ug of total protein extracts were subjected to SDS-PAGE, and levels of phospho-p38 MAPK and p38 MAPK were examined by Western blot analysis using specific antibodies. Dimethyl sulphoxide (DMSO) and UV (25J/m2) treated cells were used as the negative and positive controls respectively.

Q: Which Ki [1] does the source give for CC(C)Cc1c(-c2ccc(OP(=O)(O)O)c(Cl)c2)c(C(N)=O)c(Cc2ccc(Cl)cc2)n1CCCOP(=O)(O)O [Compound 21] here?
A: 22 ± 1 µM

Q: How did the Ki ([1]; pH 7.5) turn out when CCCc1c(-c2ccc(OP(=O)(O)O)cc2)c(C(N)=O)c(C)n1CCOP(=O)(O)O [Compound 2] was run?
A: > 100 µM

Q: For CCCC(C)Cc1c(-c2ccc(OP(=O)(O)O)cc2)c(C(N)=O)c(C)n1CCOP(=O)(O)O (stereo not drawn) [Compound 3], which Ki [1] is on record?
A: 61 ± 15 µM

Q: Which Ki ([1]; pH 7.5) does the source give for CCCC(C)Cc1c(-c2ccc(OP(=O)(O)O)c(Cl)c2)c(C(=O)NCCC(N)=O)c(C)n1CCCOP(=O)(O)O (stereo not drawn) [Compound 12] here?
A: > 100 µM

Q: With CCCCCc1c(-c2ccc(OP(=O)(O)O)c(Cl)c2)c(C(N)=O)c(C)n1CCOP(=O)(O)O [Compound 5] as the compound, how does the Ki [1] read?
A: 77 ± 12 µM

Q: For CCCC(C)Cc1c(-c2ccc(OP(=O)(O)O)c(Cl)c2)c(C(N)=O)c(CCc2ccc(Cl)cc2)n1CCCOP(=O)(O)O (stereo not drawn) [Compound 24], which “selectivity for Wip1” value [2] is on record?
A: highly selective

Q: And the Ki [1]?
A: 5.7 ± 0.4 µM

Q: What about the “inhibition of PP2Cα” value (PP2Cα) of the same compound?
A: no inhibition

Q: What about the Ki (PP2Cα) of the same compound?
A: > 100 µM

Q: What about the “inhibition of the K238D mutant” value (Wip1(K238D)) of the same compound?
A: no inhibition

Q: And the Ki (Wip1(K238D))?
A: > 100 µM

Q: With CCCC(C)Cc1c(-c2ccc(OP(=O)(O)O)cc2)c(C(N)=O)c(CC(C)C)n1CCCOP(=O)(O)O (stereo not drawn) [Compound 15] as the compound, how does the Ki [1] read?
A: 48 ± 5 µM

Q: With CCCCC(C)c1c(C(N)=O)c(-c2ccc(OP(=O)(O)O)c(Cl)c2)c(C)n1CCCOP(=O)(O)O (stereo not drawn) [Compound 14] as the compound, how does the Ki ([1]; pH 7.5) read?
A: > 100 µM

Q: How did the Ki [1] turn out when CCCC(C)Cc1c(-c2ccc(OP(=O)(O)O)c(Cl)c2)c(C(N)=O)c(CCc2ccccc2)n1CCCOP(=O)(O)O (stereo not drawn) [Compound 18] was run?
A: 15 ± 1 µM

Q: For CCC[C@H](C)Cc1c(-c2ccc(OP(=O)(O)O)c(Cl)c2)c(C(N)=O)c(CCc2ccc(Cl)cc2)n1CCCOP(=O)(O)O [Compound 25], which “selectivity for Wip1” value [2] is on record?
A: highly selective

Q: And the Ki [1]?
A: 4.7 ± 0.7 µM

Q: And the “inhibition of PP2Cα” value (PP2Cα)?
A: no inhibition

Q: And the Ki (PP2Cα)?
A: > 100 µM

Q: And the “inhibition of the K238D mutant” value (Wip1(K238D))?
A: no inhibition

Q: What about the Ki (Wip1(K238D)) of the same compound?
A: > 100 µM

Q: For CCCCC(CCCC)Cc1c(-c2ccc(OP(=O)(OCCSC(=O)C(C)(C)C)Oc3ccccc3)c(Cl)c2)c(C(=O)O)c(Cc2ccc(Cl)cc2)n1CCCOP(=O)(OCCSC(=O)C(C)(C)C)Oc1ccccc1 (stereo not drawn) [Compound 1A], which “effectiveness in inhibiting Wip1 (levels of phospho-p38 MAPK)” value (Wip1 in MCF7 cells) is on record?
A: effective

Q: For CCCC(C)Cc1c(-c2ccc(OP(=O)(O)O)c(Cl)c2)c(C(=O)NC(CC(C)C)C(N)=O)c(C)n1CCCOP(=O)(O)O (stereo not drawn) [Compound 13], which Ki [1] is on record?
A: 22 ± 2 µM

Q: CCCC(C)Cc1c(-c2ccc(OP(=O)(O)O)c(Cl)c2)c(C(N)=O)c(Cc2ccc(F)cc2)n1CCCOP(=O)(O)O (stereo not drawn) [Compound 23] was tested. Which Ki [1] did it give?
A: 16 ± 2 µM

Q: Which Ki [1] does the source give for CCCC(C)Cc1c(-c2ccc(OP(=O)(O)O)cc2)c(C(N)=O)c(C)n1CCCOP(=O)(O)O (stereo not drawn) [Compound 9] here?
A: 22 ± 3 µM

Q: With Cc1c(C(N)=O)c(-c2ccc(OP(=O)(O)O)c(Cl)c2)c(CC(C)C)n1CCCOP(=O)(O)O [Compound 10] as the compound, how does the Ki [1] read?
A: 28 ± 1 µM

Q: With Cc1c(C(N)=O)c(-c2ccc(OP(=O)(O)O)c(Cl)c2)c(CC(C)C)n1CCOP(=O)(O)O [Compound 6] as the compound, how does the Ki [1] read?
A: 38 ± 8 µM

Q: With CCCC(C)Cc1c(-c2ccc(OP(=O)(O)O)c(Cl)c2)c(C(N)=O)c(C)n1CCCCOP(=O)(O)O (stereo not drawn) [Compound 11] as the compound, how does the Ki ([1]; pH 7.5) read?
A: > 100 µM

Q: Which “selectivity for Wip1” value [2] does the source give for CCC[C@@H](C)Cc1c(-c2ccc(OP(=O)(O)O)c(Cl)c2)c(C(N)=O)c(CCc2ccc(Cl)cc2)n1CCCOP(=O)(O)O [Compound 26] here?
A: highly selective

Q: And the Ki [1]?
A: 10 ± 1 µM

Q: And the “inhibition of PP2Cα” value (PP2Cα)?
A: no inhibition

Q: And the Ki (PP2Cα)?
A: > 100 µM

Q: What about the “inhibition of the K238D mutant” value (Wip1(K238D)) of the same compound?
A: no inhibition

Q: What about the Ki (Wip1(K238D)) of the same compound?
A: > 100 µM

Q: How did the Ki [1] turn out when CCCC(C)Cc1c(-c2ccc(OP(=O)(O)O)c(Cl)c2)c(C(N)=O)c(C)n1CCOP(=O)(O)O (stereo not drawn) [Compound 7] was run?
A: 40 ± 1 µM

Q: Which Ki [1] does the source give for Cc1c(C(N)=O)c(-c2ccc(OP(=O)(O)O)cc2)c(CC2CCCCC2)n1CCOP(=O)(O)O [Compound 4] here?
A: 81 ± 5 µM

Q: With CCc1c(-c2ccc(OP(=O)(O)O)cc2)c(C(N)=O)c(C)n1CCOP(=O)(O)O [Compound 1] as the compound, how does the Ki ([1]; pH 7.5) read?
A: > 100 µM
